Experimental data reported in patent US7189708B2, “Topical composition for skin” (Kao Corporation, priority 1999, dated 2007).
Peptide text beside a SMILES is read from it.

Legend:
SD male rats = assay: Maintenance of skin elasticity in rat (UV-B exposed hind limb pads; cutometer and SEM linearity of elastic fibers); type: in vivo; parameters: Ue value / Uf value: unit not given here; conditions: for Ue value / Uf value: 10 μL on pad after UV-B, three times a week, six weeks, cutometer 500 hPa; for Ue value: solvent only 0.02125, no treatment 0.03294; for Uf value: solvent only 0.03333, no treatment 0.04833; for Linearity: linearity of elastic fibers A/(B×C) from SEM micrographs of rat pad, linear = 1, solvent only 0.5133, no treatment 0.7345
Method: Maintenance of Skin Elasticity in Rat
Three-week-old SD male rats were classified into three groups (five rats per group): a group of rats to which an 80% ethanol solution containing a test compound was applied to pads of hind limbs; a group of rats to which a solvent (80% ethanol) was applied to the pads; and a group of non-treated rats. Each pad was exposed to UV-B rays (less than 1 MED), and then the test compound-containing solution or the solvent was applied to the pad in an amount of 10 μL. The above procedure was carried out three times a week (every other day of the week days) for six weeks.
Skin elasticity was determined using a cutometer (model: SES575, product of Courage Kazaka) as follows. The skin of the pad was subjected to suction at 500 hPa for three seconds, and then released for three seconds. The displacement over six seconds was measured, to thereby obtain Ue and Uf values. The measurement was repeated five times for each pad.
The linearity of elastic fibers was analyzed according to the method of Imokawa et al. (J. Invest. Dermatol., 105, 254–258(1995)) through image analysis of an SEM micrograph. Specifically, samples for scanning electron microscopy (SEM) were prepared by fixing the pad of a rat with Mercox (product of Dainippon Ink and Chemicals, Inc.) under reflux, followed by digestion with formic acid. From SEM micrographs (×1000) of each of the samples, ten typical micrographs were selected and enlarged copies were made. Each of the enlarged micrographs was divided into 16 uniform regions. From each of the regions, any one of the elastic fibers was selected and traced on a transparent film with a line having a fixed width (width: 8 pixels). When the area surrounded by the line tracing the elastic fiber is called A, and the longitudinal length and lateral length of the minimum rectangle surrounding the trace are called B and C, respectively, the linearity of the elastic fiber is represented by A/(B×C). For example, when the trace of the elastic fiber is linear, the linearity becomes 1.

C3H mice = assay: Hair growth suppression in mouse (shaved back, topical application); type: in vivo; conditions: 100 μL twice a day on shaved back, area of hair regrowth after three weeks relative to control; for response vs control in vivo at 0.1 %: Mus musculus, topical, 504 h, 0.1% in 80% ethanol, read-out: Hair-growth suppression ratio; for Hair-growth suppression ratio: 1% in 80% ethanol
Method: Hair Growth Suppression in Mouse
The hair on a portion of the backs (size: 2 cm×4 cm) of groups of six-week-old C3H mice, each group consisting of five mice, was carefully shaved so as not to injure the skin using an electric clipper and electric shaver. To the thus-shaved portion, a sample was applied in an amount of 100 μL twice a day for four weeks. Test compounds were dissolved in a solvent (80% ethanol) to attain the concentrations shown in Table 3, to thereby prepare samples. In the control group, only the solvent was applied to the shaved portion. After three weeks, in order to observe hair regrowth, the shaved portion was photographed at a certain magnification, and the ratio of the area of hair regrowth (i.e., the ratio of the area of hair regrowth to that of the shaved area) was compared with that of the control group using an image analyzer. The hair growth suppression ratio (%) was represented by a relative value when the ratio of the area of the hair regrowth in the control group was taken as 100.

hairless mouse (HR/ICR) = assay: Suppression of wrinkle formation in hairless mouse (UV-B exposure, topical application); conditions: 100 μL on back after daily UV-B, 20 weeks, visual rating 0 (no wrinkle) to 4 (deep wrinkles), control 3.06 ± 0.13
Method: Immediately after the exposure, an 80% ethanol solution (100 μL) containing a 0.1% test compound was applied to the back. The above procedure was carried out daily for 20 weeks. […] In the control group, only 80% ethanol was applied to the back of each mouse during the test. After the test, wrinkle formation was visually observed, and the degree of wrinkle formation was evaluated against the following ratings (wrinkle index).
1: A few shallow wrinkles were formed.
2: A slight amount of wrinkles was formed.
3: Some wrinkles were formed.
4: Deep wrinkles were formed.

[1] = 0.1% test compound in 80% ethanol
[2] = 1% test compound in 80% ethanol

| SMILES | Ue value (SD male rats; 0.1% in 80% ethanol) | Uf value (SD male rats; 0.1% in 80% ethanol) | Linearity (SD male rats; 0.1%) | response vs control in vivo at 0.1 % (C3H mice) [%] | Wrinkle Index (hairless mouse (HR/ICR); [1]) | Hair-growth suppression ratio (C3H mice) [%] | Wrinkle Index (hairless mouse (HR/ICR); [2]) | Ue value (SD male rats; 1% in 80% ethanol) | Uf value (SD male rats; 1% in 80% ethanol) | Linearity (SD male rats; 1%) |
| --- | --- | --- | --- | --- | --- | --- | --- | --- | --- | --- |
| O=C(O)CCNC(=O)[C@H](Cc1ccccc1)NCC(=O)O [Compound 1, N-(carboxymethyl)phenylalanyl-β-alanine] | 0.03153 ± 0.00523 | 0.04711 ± 0.00213 | 0.7221 ± 0.0299 | 82.4 | 1.25 ± 0.11 | – | – | – | – | – |
| O=C(O)CCCNC(=O)[C@H](Cc1ccccc1)NCC(=O)O [Compound 2] | – | – | – | 73.3 | 2.01 ± 0.14 | – | – | – | – | – |
| CC(C)C[C@H](NC(=O)[C@H](Cc1ccccc1)NCC(=O)O)C(=O)O [Compound 3] | 0.02985 ± 0.01021 | 0.04323 ± 0.01722 | 0.7013 ± 0.06551 | 72.3 | 1.82 ± 0.09 | – | – | – | – | – |
| C[C@H](NC(=O)[C@H](Cc1ccccc1)NCC(=O)O)C(=O)O [Compound 4] | 0.03009 ± 0.00274 | 0.04533 ± 0.00971 | 0.7153 ± 0.0329 | 80.5 | 1.75 ± 0.12 | – | – | – | – | – |
| O=C(O)CN[C@@H](Cc1ccccc1)C(=O)N[C@@H](CC(=O)O)C(=O)O [Compound 5] | 0.02694 ± 0.00157 | 0.04285 ± 0.00271 | 0.6652 ± 0.0239 | 71 | 2.21 ± 0.14 | – | – | – | – | – |
| CC(=O)N[C@@H](Cc1ccccc1)C(=O)NCCC(=O)O [Compound 6] | 0.02433 ± 0.00921 | 0.03913 ± 0.00924 | 0.6078 ± 0.0195 | 58.3 | 2.57 ± 0.20 | – | – | – | – | – |
| CN(C)[C@@H](Cc1ccccc1)C(=O)NCCC(=O)O [Compound 7] | 0.02623 ± 0.00874 | 0.0412 ± 0.00258 | 0.6423 ± 0.0433 | 69.6 | 2.34 ± 0.10 | – | – | – | – | – |
| CCCN[C@@H](Cc1ccccc1)C(=O)NCCC(=O)O [Compound 8] | 0.02708 ± 0.00119 | 0.0427 ± 0.00657 | 0.6976 ± 0.0422 | 77.8 | 2.03 ± 0.09 | – | – | – | – | – |
| CC(C)C[C@H](NCC(=O)O)C(=O)NCCC(=O)O [Compound 9] | 0.02793 ± 0.00697 | 0.04295 ± 0.00836 | 0.6892 ± 0.0157 | 77.1 | 2.11 ± 0.11 | – | – | – | – | – |
| N[C@@H](Cc1ccccc1)C(=O)NCC(=O)O [Compound 11, Phe-Gly] (H-Phe-Gly-OH) | – | – | – | – | – | 32.9 | 2.82 ± 0.18 | – | – | – |
| N[C@@H](Cc1ccccc1)C(=O)NCCC(=O)O [Compound 12, Phe-β-Ala] | – | – | – | – | – | 90.4 | 1.98 ± 0.20 | 0.03326 ± 0.01267 | 0.04572 ± 0.01862 | 0.7197 ± 0.0321 |
| N[C@@H](Cc1ccccc1)C(=O)N[C@@H](Cc1ccccc1)C(=O)O [Compound 13, Phe-Phe] (H-Phe-Phe-OH) | – | – | – | – | – | 78.5 | 2.64 ± 0.16 | – | – | – |
| CC(C)C[C@H](NC(=O)[C@@H](N)Cc1ccccc1)C(=O)O [Compound 14, Phe-Leu] (H-Phe-Leu-OH) | – | – | – | – | – | 70.9 | 2.82 ± 0.22 | – | – | – |
| N[C@@H](Cc1ccccc1)C(=O)N[C@@H](CC(=O)O)C(=O)O [Compound 16, Phe-Asp] (H-Phe-Asp-OH) | – | – | – | – | – | 75.2 | 2.50 ± 0.15 | – | – | – |
| NC(Cc1ccccc1)C(=O)NCCS(=O)(=O)O (stereo not drawn) [Compound 17, Phe-Tau] | – | – | – | – | – | 79.5 | 1.99 ± 0.12 | 0.02894 ± 0.0114 | 0.04369 ± 0.00872 | 0.6913 ± 0.0341 |
